# Patent US7022711B2, “2-(4-Pyridyl)amino-6-dialkoxyphenyl-pyrido[2,3-d]pyrimidin-7-ones” (Warner-Lambert Company, priority 2000, dated 2006)
# Tests used:
# [1] = system: Human umbilical vein endothelial cells (HUVECs); assay: Serum stimulated HUVEC cell proliferation (Sulphorhodamine B); type: cell-based
# Experimental: (§1) Human umbilical vein endothelial cells (HUVECs) (Clonetics, Palo Alto, Calif.) were seeded at 2000 cells per well in growth medium containing 2% serum (EGM, Clonetics) and allowed to attach overnight (37° C., 5% CO2, 100% humidity). C6 rat glioma cells (ATCC) were seeded at 600 cells per well and incubated in F10 medium (GIBCO, Gaithersburg, Md.) supplemented with 15% horse serum, 2.5% fetal bovine serum, and 1 mM glutamine. A90 human ovarian cells (Dr. Kent Crickard, SUNY/AB Medical School) were seeded at 600 cells per well in RPMI1640 (GIBCO) plus 10% fetal bovine serum. Plates were incubated overnight (37° C., 5% CO2, 100% humidity) to allow the cells to attach. Test compound dilutions were added to the appropriate wells, and the incubation was continued for 4 additional days. Monolayers were fixed in 10% trichloroacetic acid (30 minutes at 4° C.), washed with distilled water, and stained with Sulphorhodamine B (0.075% in 1% acetic acid) (Sigma). Plates were washed in 1% acetic acid, and the bound dye was solubilized in 100 μL unbuffered Tris base. Absorbance was measured at 540 nm using a reference filter wavelength of 630 nm. Inhibitor potency (IC50) versus cellular proliferation was determined, and endothelial cell selectivity was assessed by comparing the inhibition of HUVEC proliferation to A90 and C6 tumor cell proliferation (Table 3).
# [2] = target: T1, VEGFR-2 (Homo sapiens, UniProt P35968); assay: Kinase inhibition assay (DELFIA), VEGF-2; type: biochemical; details: 40 μM ATP, kinase domain 20 nM
# T1 construct: The kinase domains from FGFR-1, VEGFR-2, Lck, and PDGF were purified from baculoviral vectors expression systems; made in house
# T1 sequence (P35968 834-1162 limits assumed, species assumed): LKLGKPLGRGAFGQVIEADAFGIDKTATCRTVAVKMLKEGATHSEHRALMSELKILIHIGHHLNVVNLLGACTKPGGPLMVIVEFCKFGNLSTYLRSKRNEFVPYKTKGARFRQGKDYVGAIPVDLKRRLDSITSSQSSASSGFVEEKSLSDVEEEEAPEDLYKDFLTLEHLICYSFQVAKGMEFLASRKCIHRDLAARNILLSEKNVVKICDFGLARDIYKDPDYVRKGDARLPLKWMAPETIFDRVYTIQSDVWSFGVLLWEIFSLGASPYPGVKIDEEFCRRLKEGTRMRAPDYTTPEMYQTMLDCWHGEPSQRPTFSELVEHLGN
# Experimental: DELFIA plates (EG&G Wallac, Gaithersburg, Md.) were coated overnight with Poly Glu Tyr (4:1) (Sigma, St. Louis, Mo.) at room temperature, washed (DELFIA wash reagent, EG&G Wallac), and spotted with 1 μL inhibitor dilution or DMSO carrier control per well. In some cases, kinase was autophosphorylated prior to analysis by incubating 45 minutes at 4° C. in the presence of 4 mM ATP and 25 mM MgCl2. A typical 100 μL kinase assay reaction contained 20 mM Tris (pH 7.5), 20 mM MgCl2, 50 mM NaCl, 5 mM DTT, and protease inhibitors (Mini EDTA-free protease inhibitor cocktail tablets, Boehringer Mannheim, Indianapolis, Ind.), 40 μM ATP, and an appropriate concentration of inhibitor. The reaction was allowed to continue for 30 minutes at room temperature. Plates were washed, blocked 30 minutes at room temperature (0.5% bovine serum albumin in DELFIA Assay Buffer, EG&G Wallac), and washed. One hundred microliter europium-conjugated antiphosphotyrosine antibody in DELFIA assay buffer was added to each well. Plates were incubated for 1 hour and decanted. […] Compounds were tested from 10 through 0.0001 μM. c-Src was (Upstate Biotechnology, Lake Placid, N.Y.) was used at 3 units per reaction. The kinase domains from FGFR-1, VEGFR-2, Lck, and PDGF were purified from baculoviral vectors expression systems and were used in the assays at 20 nM.
# [3] = system: VEGFR-2 and FGFR-1 compared to PDGFR, Lck, and c-Src; assay: Kinase selectivity comparison across the kinase inhibition assays; type: biochemical; details: compared with reference Compounds A and B
# From the text: The invention compounds have been evaluated in the in vitro biological assays described in U.S. Pat. No. 5,733,914. […] Reference Compound A has a 2,6-dichloro phenyl group at the 6-position. Reference Compound B has a 3,5-dimethoxyphenyl group at the 6-position and a substituted phenylamino at the 2-position. The invention compound of Example 8 has the required 3,5-dimethoxyphenyl at the 6-position and the required (4-pyridyl)amino at the 2-position. The structures are shown in Table 1, along with their respective inhibitory activities against various tyrosine kinases, when evaluated in the models described in U.S. Pat. No. 5,733,914.
# The preferred kinase selectivity profile of the compound in Example 8 is shared by the other representative compounds of the invention shown in Table 2. The inhibition activity of the compounds in Examples 8, 9, 10, 11, and 12 and Reference Compounds A and B were evaluated using the Dissociated Enhanced Lanthanide Fluoroimmuno Assay (DELFIA) (Frank Loganzo and Carolyn Hardy. A sensitive, time-resolved fluorometric assay for the detection of inhibitors of phosphotyrosine kinases. American Biotechnology Laboratory, December 1998). […] One hundred microliter DELFIA enhancement solution (EG&G Wallac) was added and time-resolved fluorescence of the reactions determined using a VICTOR2 1420 multilable counter (EG&G Wallac). […]
# [4] = Metabolic stability, mice liver S9 fraction; type: in vitro ADME; details: mice liver S9, 5 μM, 37° C., 1.0 mM NADPH
# Experimental: Compounds were individually incubated (5 μM in DMSO) with human and mice liver S9 fractions in 50 mM KHPO4 buffer at 37° C. in the presence of 1.0 mM NADPH and additional cofactors. At 0, 10, 20, and 40 minutes, 100 μL aliquots were removed and added to 300 μL of acetonitrile. Standard curves were prepared in a similar manner with each compound. Samples were analyzed for parent concentration by LC-MS/MS. The in vitro metabolic half-life was determined from the concentration-time plots using WinNonlin. These in vitro data represent the rate of oxidative, hydrolytic, and conjugative metabolism.
# [5] = system: A90 human ovarian cells; assay: A90 tumor cell proliferation (Sulphorhodamine B); type: cell-based; details: 4 days with compound
# Experimental: as §1
substance,measurement,setting,value
"6-(3,5-Dimethoxy-phenyl)-8-ethyl-2-(pyridin-4-ylamino)-8H-pyrido[2,3-d]pyrimidin-7-one [Example 8]",IC50,"[1]; 2% serum growth medium, 4 days with compound",0.009 µM
same,selectivity for serum-stimulated endothelial cell proliferation,[1]; HUVEC compared to A90 and C6 tumor cell proliferation,selective inhibitors
same,IC50,[2],0.02 µM
same,"selectivity for VEGFR-2 and FGFR-1 compared to PDGFR, Lck, and c-Src",[3],more selective
same,MS9 in vitro metabolic half-life,[4],>3.33 h
same,IC50,[5],2.92 µM
